Results: patent publication US6989390B2, “Amonafide salts” (priority 2002, dated 2006)
Where a name gives a salt, the structure may show the parent alone.

Columns and labels:
[1] = Minimum amount of water/ethanol (1.5/4 v/v) required to dissolve the crude salt at boil (recrystallization); assay type: physicochemical; settings: minimum water/ethanol (1.5/4 v/v) to dissolve crude product at boil; salt made by the method in column 2
Excerpt: For comparative purposes, between and among organic salts prepared in this manner and for the purposes of subsequent Example 3, Table 3, crude reaction products were recrystalized from water/ethanol (1.5/4 v/v per gram of salt) using the minimum amount of solvent to effect dissolution at boil.
In the case of succinic acid, the organic acid was dispensed as a half-equivalent in order to generate mitonafide hemisuccinate. […] Crude product that was isolated from the hydrogenation reaction mixture was analyzed for purity by high pressure liquid chromatography (HPLC) according to the conditions described in Table 1 above. The crude product was recrystallized from water/ethanol (1.5/4 v/v) using the minimum amount of solvent required to dissolve the crude product at boil, which is shown in the last column of Table 3 for each salt. The recrystallized product was then analyzed for purity by HPLC.
The purities of the crude salts were assessed by HPLC according to the conditions described in Table 1 above. The crude salts were then recrystallized from the minimum amount of water/ethanol (1.5/4 v/v) using the minimum amount of solvent required to dissolve the crude product at boil, which is shown in the last column of Table 3 for each salt. The resulting purified salts were again assessed for purity.
The hydrochloride and methanesulfonic acid salts of amonafide were prepared according to U.S. Pat. No. 5,420,137. Exemplary procedures are as follows: 3 g of crude amonafide free base, obtained as described in the previous two paragraphs, above, were dissolved under reflux in 60 ml of virtually anhydrous ethanol. Subsequently 1 ml of 35% (1 equivalent, estimated) strength hydrochloric acid was added dropwise while shaking vigorously. After cooling, the resulting crystals were filtered off and washed with 10 ml of anhydrous ethanol. The methanesulfonic acid salt was obtained using the same procedure, but replacing hydrochloric acid with 0.8 ml of methanesulfonic acid. The purity was assessed by HPLC using the conditions described in Table 1. The isolated products were then recrystallized from water/ethanol (1.5/4 v/v) using the minimum amounts of solvent required to dissolve the crude product at boil, which are shown for each salt in Table 3. The resulting purified salts were again assessed for purity.
The hydrochloride salt of amonafide was obtained by the method of Zee-Chang et al., U.S. Pat. No. 4,614,820. Exemplary conditions are as follows: a mixture of the hydrochloride salt of N-(dimethylaminoethyl)-3-nitro-1,8-naphthalimide and 10% palladium-on-charcoal in water was hydrogenated at room temperature under 40 lbs/in^2 of hydrogen for one hour. […] To the mixture was added 3 ml of concentrated hydrochloric acid. It was then filtered and the filtrate was evaporated to dryness under reduced pressure. The residue was triturated with 30 ml of absolute ethanol and filtered. The resulting solid was then washed with ether and dried. The purity was assessed by HPLC using the conditions described in Table 1. The crude product was then recrystallized from water/ethanol (1.5/4 v/v) using the minimum amount of solvent (40 mL/g) required to dissolve the crude product at boil. The resulting purified salts were again assessed for purity.

[2] = Solubility assessment of amonafide salts (50, 100, 200 mg in 1 ml USP water or isotonic saline); assay type: physicochemical
Protocol: A number of organic acid amonafide salts of the present invention were tested for their solubility in aqueous medium and compared with the solubility of the corresponding hydrochloride and methansolufonic acid salts. […] Solutions were allowed to equilibrate for 1 hour, their dissolution status noted, and then refrigerated for an additional hour (at 2° C.). Thereafter, the samples were returned to room temperature and examined for precipitate formation and allowed to equilibrate for another hour until a final inspection for dissolution status.

[3] = 50 mg salt in 1 ml 0.9% sodium chloride (saline), 0 hours
[4] = 50 mg salt in 1 ml 0.9% sodium chloride (saline), 1 hours
[5] = 50 mg salt in 1 ml distilled water, 0 hours
[6] = 50 mg salt in 1 ml distilled water, 1 hours
[7] = 100 mg salt in 1 ml 0.9% sodium chloride (saline), 0 hours
[8] = 100 mg salt in 1 ml 0.9% sodium chloride (saline), 1 hours
[9] = 100 mg salt in 1 ml distilled water, 0 hours
[10] = 100 mg salt in 1 ml distilled water, 1 hours

With Amonafide Aspartate the “Solvent” value [1] was 30 mL/g.
For amonafide maleate, the “Dissolution Status” value [2, 3] was “Insoluble”, the “Dissolution Status” value [2, 4] was “Insoluble” and the “Dissolution Status” value [2, 5] was “Insoluble”. For the same molecule, the “Dissolution Status” value [2, 6] was “Insoluble” and the “Solvent” value [1] was 20 mL/g.
With Amonafide pyruvate the “Dissolution Status” value [2, 3] was “Soluble”, the “Dissolution Status” value [2, 4] was “Soluble” and the “Dissolution Status” value [2, 5] was “Soluble”. The “Dissolution Status” value [2, 6] was “Soluble”, the “Dissolution Status” value [2, 7] was “Soluble” and the “Dissolution Status” value [2, 8] was “Soluble”. For the same molecule, the “Dissolution Status” value [2, 9] was “Soluble”, the “Dissolution Status” value [2, 10] was “Soluble” and the “Dissolution Status” value ([2]; 200 mg salt in 1 ml 0.9% sodium chloride (saline), 0 hours) was “Partially Soluble”. The “Dissolution Status” value ([2]; 200 mg salt in 1 ml 0.9% sodium chloride (saline), 1 hours) was “Partially Soluble”, the “Dissolution Status” value ([2]; 200 mg salt in 1 ml distilled water, 0 hours) was “Soluble” and the “Dissolution Status” value ([2]; 200 mg salt in 1 ml distilled water, 1 hours) was “Soluble”. For the same molecule, the “solubility in distilled water and in saline at high concentration compared with the hydrochloride salt forms / organic salts” value ([2]; text summary of Table 4) was “more soluble” and the “Solvent” value [1] was 20 mL/g.
In the case of `CN(C)CCN1C(=O)c2cccc3cc(N)cc(c23)C1=O.O=C(O)CCCCC(=O)O` [Amonafide Adipate], the “Solvent” value [1] is reported as 25 mL/g.
For `CN(C)CCN1C(=O)c2cccc3cc(N)cc(c23)C1=O.O=C(O)C(O)C(O)C(=O)O` [Amonafide L-tartrate], the “Solvent” value [1] was 20 mL/g.
For amonafide fumarate, the “Dissolution Status” value [2, 3] was “Insoluble”, the “Dissolution Status” value [2, 4] was “Insoluble” and the “Dissolution Status” value [2, 5] was “Insoluble”. For the same molecule, the “Dissolution Status” value [2, 6] was “Insoluble” and the “Solvent” value [1] was 25 mL/g.
With `CN(C)CCN1C(=O)c2cccc3cc(N)cc(c23)C1=O.O=C(O)CO` [Amonafide glycolate] the “Solvent” value [1] was 12.5 mL/g.
With Amonafide succinate the “Dissolution Status” value [2, 3] was “Insoluble”, the “Dissolution Status” value [2, 4] was “Insoluble” and the “Dissolution Status” value [2, 5] was “Soluble”. The “Dissolution Status” value [2, 6] was “Soluble”, the “Dissolution Status” value [2, 7] was “Insoluble” and the “Dissolution Status” value [2, 8] was “Insoluble”. The “Dissolution Status” value [2, 9] was “Insoluble”, the “Dissolution Status” value [2, 10] was “Insoluble” and the “Solvent” value [1] was 20 mL/g.
For `CN(C)CCN1C(=O)c2cccc3cc(N)cc(c23)C1=O.O=C(O)CCC(=O)C(=O)O` [Amonafide 2-oxoglutarate], the “Solvent” value [1] was 30 mL/g.
For `CN(C)CCN1C(=O)c2cccc3cc(N)cc(c23)C1=O.O=C(O)c1ccccc1O` [Amonafide salicylate], the “Solvent” value [1] was 35 mL/g.
In the case of “amonafide hemisuccinate [Amonafide hemi-succinate]”, the “Solvent” value [1] is reported as 15 mL/g.
With `CN(C)CCN1C(=O)c2cccc3cc(N)cc(c23)C1=O.CS(=O)(=O)O` [Amonafine methanesulfonate, reference compound] the “Solvent” value [1] was 25 mL/g.
With `CN(C)CCN1C(=O)c2cccc3cc(N)cc(c23)C1=O` [Amonafide HCl, Amonafide Monohydrochloride, reference compound] the “solubility in the test panel of Tables 3 and 4” value ([2]; monohydrochloride prepared by salt exchange, 99.2% pure) was “low solubility” and the “Solvent” value [1] was 40 mL/g.
With `CN(C)CCN1C(=O)c2cccc3cc(N)cc(c23)C1=O.O=C(O)CC(=O)O` [Amonafide malonate, amonafide malonate] the “Solvent” value [1] was 20 mL/g.
In the case of `CN(C)CCN1C(=O)c2cccc3cc(N)cc(c23)C1=O.O=C(O)CC(O)(CC(=O)O)C(=O)O` [Amonafide Citrate], the “Solvent” value [1] is reported as 25 mL/g.
